Assay results: patent US9328138B2 (priority 2011, dated 2016)
pKi: −log10 of the molar value. Where a name gives a salt, the structure may show the parent alone.

Assays:
[1] = target: T1, HCV genotype 1b (BK) NS3 modified enzyme with a R155K mutation (Hepatitis C virus genotype 1b, UniProt P26663, R1181K); assay: HCV NS3 protease time-resolved fluorescence (TRF) assay, genotype 1b R155K; format: biochemical; conditions: Ki 1b R155K
T1 construct: HCV genotype 1b (BK) NS3 modified enzyme
Method in brief: (§1)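 Steps: compound plus NS3/NS4A enzyme for 10 minutes; add peptide substrate to 25 nM; let cleavage proceed 6 hours at room temperature; read product fluorescence (340 nm excitation, 615 nm emission, delayed 400 μs). Enzyme levels gave signal/background 5-20.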

[2] = target: HCV NS3 protease genotype 3a (3A-1) (Hepatitis C virus genotype 3a, UniProt Q81258); assay: HCV NS3 protease time-resolved fluorescence (TRF) assay, genotype 3a; format: biochemical; conditions: Ki 3a
Method in brief: as §1

[3] = genotype 1b (BK) NS3 R155K, single value

Which results are given for C=C[C@@H]1C[C@]1(NC(=O)[C@@H]1C[C@@H]2CN1C(=O)[C@H](C(C)(C)C)NC(=O)O[C@@H]1C[C@H]1CCCCCc1c(nc3ccccc3c1OCCCN1CCC(OC)CC1)O2)C(=O)NS(=O)(=O)C1(C)CC1 [Example 156, (1aR,5S,8S,10R,22aR)-5-tert-butyl-N-[(1R,2S)-2-ethenyl-1-{[(1-methylcyclopropyl)sulfonyl]carbamoyl}cyclopropyl]-17-[3-(4-methoxypiperidin-1-yl)propoxy]-3,6-dioxo-1,1a,3,4,5,6,9, 10,18,19,20,21,22,22a-tetradecahydro-8H-7,10-methanocyclopropa[18,19] [1,10,3,6]dioxadiaza cyclononadecino[11,12-b]quinoline-8-carboxamide]?
pKi [1, 3]: 10.10; pKi [2]: 9.08

What does the source list for C=C[C@@H]1C[C@]1(NC(=O)[C@@H]1C[C@@H]2CN1C(=O)[C@H](C(C)(C)C)NC(=O)O[C@@H]1C[C@H]1CCCCCc1c(nc3ccccc3c1OC[C@@H]1CCN(C(=O)OC(C)(C)C)C1)O2)C(=O)NS(=O)(=O)C1(C)CC1 [Example 138, tert-butyl (3R)-3-({[(1aR,5S,8S,10R, 22aR)-5-tert-butyl-8-{[(1R,2S)-2-ethenyl-1-{[(1-methylcyclopropyl)sulfonyl]carbamoyl}cyclopropyl]carbamoyl}-3,6-dioxo-1,1a,3,4,5,6,9,10,18,19,20, 21,22,22a-tetradeca hydro-8H-7,10-methanocyclopropa [18,19][1,10,3,6]dioxadiazacyclononadecino[11,12-b]quinolin-17-yl]oxy}methyl)pyrrolidine-1-carboxylate]?
pKi [1, 3]: 9.20; pKi [2]: 8.15

How did the pKi [1, 3] turn out when C=C[C@@H]1C[C@]1(NC(=O)[C@@H]1C[C@@H]2CN1C(=O)[C@H](C1CCCCC1)NC(=O)O[C@@H]1C[C@H]1CCCCCc1c(nc3ccccc3c1OCCCN1CC[C@@H](O)C1)O2)C(=O)NS(=O)(=O)C1(C)CC1 [Example 169, (1aR,5S,8S,10R,22aR)-5-cyclohexyl-N-[(1R,2S)-2-ethenyl-1-{[(1-methylcyclopropyl)sulfonyl]carbamoyl}cyclopropyl]-17-{3-[(3R)-3-hydroxypyrrolidin-1-yl]propoxy}-3,6-dioxo-1,1a,3,4,5,6,9,10, 18,19,20,21,22,22a-tetradeca hydro-8H-7,10-methanocyclopropa[18,19][1,10,3,6] dioxadiazacyclononadecino[11,12-b] quinoline-8-carboxamide] was run?
Its pKi is 10.38.

What about the pKi [2] of the same molecule?
Its pKi is 9.12.

What does the source list for C=C[C@@H]1C[C@]1(NC(=O)[C@@H]1C[C@@H]2CN1C(=O)[C@H](CC1CCCCC1)NC(=O)O[C@@H]1C[C@H]1CCCCCc1c(nc3ccccc3c1OCCN1CCOCC1)O2)C(=O)NS(=O)(=O)C1(C)CC1 [Example 125, (1aR,5S,8S,10R,22aR)-5-(cyclohexylmethyl)-N-[(1R,2S)-2-ethenyl-1-{[(1-methylcyclopropyl)sulfonyl]carbamoyl}cyclopropyl]-17-[2-(morpholin-4-yl)ethoxy]-3,6-dioxo-1,1a,3,4,5,6,9,10,18,19,20, 21,22,22a-tetradecahydro-8H-7,10-methanocyclopropa [18,19][1,10,3,6]dioxadiazacyclo nonadecino[11,12-b]quinoline-8-carboxamide]?
pKi [1, 3]: 8.39; pKi [2]: 6.94

What does the source list for C=C[C@@H]1C[C@]1(NC(=O)[C@@H]1C[C@@H]2CN1C(=O)[C@H](C1CCCCC1)NC(=O)O[C@@H]1C[C@H]1CCCCCc1c(nc3ccccc3c1OC1CC3COCC(C1)N3CC)O2)C(=O)NS(=O)(=O)C1(C)CC1 (stereo partly drawn) [Example 290, 7-{[(1aR,5S,8S,10R,22aR)-5-cyclohexyl-8-{[(1R,2S)-2-ethenyl-1-{[(1-methylcyclopropyl)sulfonyl]carbamoyl}cyclopropyl]carbamoyl}-3,6-dioxo-1,1a,3,4,5,6,9,10,18,19,20,21,22,22a-tetradecahydro-8H-7,10-methanocyclopropa[18,19][1,10,3,6]dioxadiazacyclononadecino[11,12-b]quinolin-17-yl]oxy}-9-ethyl-3-oxa-9-azoniabicyclo[3.3.1]nonane formate]?
pKi ([1]; first of two values printed in the cell (not explained)): 10.92; pKi ([1]; second of two values printed in the cell (not explained)): 9.90; pKi [2]: 8.94
